# Where a name gives a salt, the structure may show the parent alone. Read-outs that look alike come from different tables or passages of the source.
# How the values were obtained:
# [1] = system: hypertensive reaction by angiotensin I; experiment: Effect against hypertensive activity of angiotensin I in rats, intravenous administration; type: in vivo, rats (Sprague-Dawley); details: 300 μg/kg i.v., male rats
# Procedure: (§1) Effect of the Compounds of the Present Invention against Hypertensive Activity of Angiotensin I.
# (§2) Male rats (Sprague-Dawley) weighing 300 to 400 g which were fed under free access to drinking water and feed were used as experimental animals. The rats were anesthetized with intraperitoneal administration of pentobarbital sodium (50 mg/kg) on the day before the test day and a polyethylene tube was inserted into each of the femoral artery for measurement of blood pressure and the femoral vein for injection of angiotensin I and II. And the tubes were fixed.
# On the test day, an average blood pressure in the control phase was measured by an electric hemodynamometer (MPU-0.5-290-0-III model manufactured by NEC-Sanei, Japan) and recorded by a polygraph (NEC-Sanei, Type 365 or Nippon Kohden Type RM-45, and thereafter angiotensin I and then angiotensin II were injected through the femoral vein at a dose of 300 ng/kg and 100 ng/kg, respectively, to measure the hypertensive activity. […] In calculating the percent inhibition to the hypertensive activity of angiotensin I, the percent inhibitory value was corrected based on the variation with time in the hypertensive reaction by antiotensin II.
# [2] = target: T1, Angiotensin I Converting Enzyme (ACE) (Oryctolagus cuniculus, UniProt P12822); experiment: Inhibition of Angiotensin I Converting Enzyme (ACE), HHL substrate, modified Cushman method; type: biochemical; details: read-out: ACE inhibitory activity (%); for inhibition at 1 µM: concentration 1 μM
# T1 sequence (P12822 34-1310): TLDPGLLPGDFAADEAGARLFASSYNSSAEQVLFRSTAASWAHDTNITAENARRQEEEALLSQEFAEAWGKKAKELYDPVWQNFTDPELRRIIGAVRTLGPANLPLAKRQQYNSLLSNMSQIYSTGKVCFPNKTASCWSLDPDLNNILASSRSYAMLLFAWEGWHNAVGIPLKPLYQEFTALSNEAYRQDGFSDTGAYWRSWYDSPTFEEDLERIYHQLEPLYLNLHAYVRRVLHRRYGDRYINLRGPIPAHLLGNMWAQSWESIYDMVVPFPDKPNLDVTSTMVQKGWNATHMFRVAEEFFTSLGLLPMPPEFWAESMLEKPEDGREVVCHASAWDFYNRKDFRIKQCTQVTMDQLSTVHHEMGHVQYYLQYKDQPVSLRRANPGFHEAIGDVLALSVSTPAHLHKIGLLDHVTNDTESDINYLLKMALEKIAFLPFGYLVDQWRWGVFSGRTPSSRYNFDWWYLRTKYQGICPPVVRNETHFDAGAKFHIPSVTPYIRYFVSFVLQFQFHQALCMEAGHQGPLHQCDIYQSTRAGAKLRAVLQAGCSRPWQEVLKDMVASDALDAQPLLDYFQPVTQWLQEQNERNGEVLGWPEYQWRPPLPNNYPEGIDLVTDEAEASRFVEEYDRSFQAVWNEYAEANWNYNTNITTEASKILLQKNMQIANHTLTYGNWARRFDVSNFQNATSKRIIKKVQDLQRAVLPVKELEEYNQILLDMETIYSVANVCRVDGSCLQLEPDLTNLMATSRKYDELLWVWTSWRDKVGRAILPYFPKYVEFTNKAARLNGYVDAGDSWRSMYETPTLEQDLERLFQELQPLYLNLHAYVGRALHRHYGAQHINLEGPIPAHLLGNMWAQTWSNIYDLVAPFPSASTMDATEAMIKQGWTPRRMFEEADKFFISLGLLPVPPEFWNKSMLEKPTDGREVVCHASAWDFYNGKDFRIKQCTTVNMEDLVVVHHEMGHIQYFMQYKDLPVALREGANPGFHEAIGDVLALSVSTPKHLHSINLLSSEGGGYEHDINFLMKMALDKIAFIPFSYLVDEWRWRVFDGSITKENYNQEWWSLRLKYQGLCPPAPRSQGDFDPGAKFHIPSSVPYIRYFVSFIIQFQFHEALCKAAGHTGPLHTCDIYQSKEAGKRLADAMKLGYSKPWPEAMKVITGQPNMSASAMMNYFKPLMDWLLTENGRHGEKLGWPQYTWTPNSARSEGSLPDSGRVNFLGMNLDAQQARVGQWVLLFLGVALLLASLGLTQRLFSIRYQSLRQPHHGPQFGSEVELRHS
# Procedure: Experiment on Inhibition of Angiotensin I Converting Enzyme (ACE) by the Compounds of this Invention. […] That is, using hippuryl-L-histidyl-L-leucine (HHL) as the substrate, the ACE inhibitory activity was determined in terms of percent inhibition on the amount of hippuric acid produced by ACE when the compound of the present invention was added. […] In this experiment, a borate-HCl buffer solution containing dimethylsulfoxide at a concentration equal to that of the test solution was used as a control. After warming the solution at 37° C. for 1 hour, 150 μl of 1N hydrochloric acid was added to the solution to terminate the reaction. After 0.8 ml of ethyl acetate was added the solution was centrifuged at 11500 rpm for 2 minutes. A 0.5 ml aliquot was separated from the ethyl acetate layer and dried at a temperature below 40° C. under nitrogen gas streams. The residue was mixed thoroughly with 4.5 ml of distilled water, and the mixture was subjected to colorimetry at a wavelength of 228 nm.
# [3] = system: hypertensive reaction by angiotensin I; experiment: Effect against hypertensive activity of angiotensin I in rats, oral administration; type: in vivo, rats (Sprague-Dawley); details: male rats
# Procedure: as §1
# as §2, with “250” for “300”, “350” for “400”
# On the test day, an average blood pressure in the control phase was measured by an electric hemodynamometer (MPU-0.5-290-0-III model manufactured by NEC-Sanei, Japan) and recorded by a polygraph (NEC-Sanei, Type 365 or Nippon Kohden Type RM-45), and thereafter angiotensin I and then angiotensin II were injected through the femoral vein at a dose of 300 ng/kg and 100 ng/kg, respectively, to measure the hypertensive activity. Then, 3 and 10 mg/kg of the compound of the present invention were administered orally as an aqueous solution or an aqueous gum arabic suspension, and 20, 60 and 120 minutes after the administration, angiotensin I and II were injected repeatedly to trace hypertensive reactions. In calculating the percent inhibition to the hypertensive activity of angiotensin I, the percent inhibitory value was corrected based on the variation with time in the hypertensive reaction by angiotensin II.
# [4] = 10 mg/kg orally, after 120 min.
smiles,measurement,setting,value
CCOC(=O)[C@H](CCCCCCN)N[C@H]1CSc2ccccc2N(CC(=O)O)C1=O [C2 H5],Inhibition against hypertensive reaction by angiotensin I (%),[1]; after 5 min,97%
same,Inhibition against hypertensive reaction by angiotensin I (%),[1]; after 10 min,97%
same,Inhibition against hypertensive reaction by angiotensin I (%),[1]; after 30 min,100%
same,Inhibition against hypertensive reaction by angiotensin I (%),[1]; after 60 min,96%
same,Inhibition against hypertensive reaction by angiotensin I (%),[1]; after 90 min,87%
same,Inhibition against hypertensive reaction by angiotensin I (%),[1]; after 120 min,73%
"O=C(O)CN1C(=O)[C@@H](N[C@@H](CCc2ccccc2)C(=O)O)CSc2ccccc21 [Example 13, 3(R)-[1(S)-carboxy-3-phenylpropyl]amino-4-oxo-2,3,4,5-tetrahydro-1,5-benzothiazepine-5-acetic acid monosodium salt]",inhibition at 0.01 µM,[2],46%
same,inhibition at 0.1 µM,[2],91%
"O=C(O)CN1C(=O)[C@@H](N[C@H](CCc2ccccc2)C(=O)O)CSc2ccccc21 [Example 12, 3(R)-[1(R)-carboxy-3-phenylpropyl]amino-4-2,3,4,5-tetrahydro-1,5-benzothiazepine-5-acetic acid disodium salt]",inhibition at 1 µM,[2],50%
same,inhibition at 10 µM,[2]; concentration 10 μM,86%
"O=C(O)CN1C(=O)[C@@H](N[C@@H](CCCCNC2CCCCC2)C(=O)O)CSc2ccccc21 [Example 69, 3(R)-[1(S)-carboxy-5-cyclohexylaminopentyl]amino-4-oxo-2,3,4,5-tetrahydro-1,5-benzothiazepine-5-acetic acid]",inhibition at 0.1 µM,[2]; concentration 0.1 μM,93%
same,inhibition at 1 µM,[2],100%
NCCCCCC[C@H](N[C@H]1CSc2ccccc2N(CC(=O)O)C1=O)C(=O)O [H],Inhibition against hypertensive reaction by angiotensin I (%),[1]; after 5 min,100%
same,Inhibition against hypertensive reaction by angiotensin I (%),[1]; after 10 min,97%
same,Inhibition against hypertensive reaction by angiotensin I (%),[1]; after 30 min,97%
same,Inhibition against hypertensive reaction by angiotensin I (%),[1]; after 60 min,91%
same,Inhibition against hypertensive reaction by angiotensin I (%),[1]; after 90 min,78%
same,Inhibition against hypertensive reaction by angiotensin I (%),[1]; after 120 min,48%
"CCOC(=O)[C@H](CCc1ccccc1)N[C@H]1CSc2ccccc2N(CC(=O)O)C1=O.Cl [Example 7, 3(R)-[1(S)-ethoxycarbonyl-3-phenylpropyl]amino-4-oxo-2,3,4,5-tetrahydro-1,5-benzothiazepine-5-acetic acid hydrochloride]",Inhibition against hypertensive reaction by angiotensin I (%),"[3]; 3 mg/kg orally, after 20 min.",85%
same,Inhibition against hypertensive reaction by angiotensin I (%),"[3]; 3 mg/kg orally, after 60 min.",51%
same,Inhibition against hypertensive reaction by angiotensin I (%),"[3]; 3 mg/kg orally, after 120 min.",27%
same,Inhibition against hypertensive reaction by angiotensin I (%),"[3]; 10 mg/kg orally, after 20 min.",85%
same,Inhibition against hypertensive reaction by angiotensin I (%),"[3]; 10 mg/kg orally, after 60 min.",68%
same,Inhibition against hypertensive reaction by angiotensin I (%),[3]; [4],51%
same,inhibition at 0.1 µM,[2]; concentration 0.1 μM,53%
same,inhibition at 1 µM,[2],86%
"O=C(O)CN1C(=O)[C@@H](N[C@@H](CCC2CCCCC2)C(=O)O)CSc2ccccc21 [Example 50, 3(R)-[1(S)-carboxy-3-cyclohexylpropyl]amino-4-oxo-2,3,4,5-tetrahydro-1,5-benzothiazepine-5-acetic acid]",inhibition at 0.01 µM,[2]; concentration 0.01 μM,77%
same,inhibition at 0.1 µM,[2]; concentration 0.1 μM,96%
"CCOC(=O)[C@@H](CCc1ccccc1)N[C@H]1CSc2ccccc2N(CC(=O)O)C1=O [Example 5, 3(R)-[1(R)-ethoxycarbonyl-3-phenylpropyl]amino-4-oxo-2,3,4,5-tetrahydro-1,5-benzothiazepine-5-acetic acid hydrochloride]",inhibition at 0.1 µM,[2]; concentration 0.1 μM,40%
same,inhibition at 1 µM,[2],84%
"CCOC(=O)[C@H](CCC1CCCCC1)N[C@H]1CSc2ccccc2N(CC(=O)O)C1=O.Cl [Example 9, 3(R)-[1(S)-ethoxycarbonyl-3-cyclohexylpropyl]amino-4-oxo-2,3,4,5-tetrahydro-1,5-benzothiazepine-5-acetic acid hydrochloride]",Inhibition against hypertensive reaction by angiotensin I (%),"[3]; 3 mg/kg orally, after 20 min.",66%
same,Inhibition against hypertensive reaction by angiotensin I (%),"[3]; 3 mg/kg orally, after 60 min.",36%
same,Inhibition against hypertensive reaction by angiotensin I (%),"[3]; 3 mg/kg orally, after 120 min.",12%
same,Inhibition against hypertensive reaction by angiotensin I (%),"[3]; 10 mg/kg orally, after 20 min.",92%
same,Inhibition against hypertensive reaction by angiotensin I (%),"[3]; 10 mg/kg orally, after 60 min.",72%
same,Inhibition against hypertensive reaction by angiotensin I (%),[3]; [4],68%
same,inhibition at 0.1 µM,[2]; concentration 0.1 μM,83%
same,inhibition at 1 µM,[2],95%
CCOC(=O)C(CCc1ccccc1)N[C@H]1CSc2ccccc2N(CC(=O)O)C1=O (some centres unmarked) [Example 6],inhibition at 0.1 µM,[2]; concentration 0.1 μM,48%
same,inhibition at 1 µM,[2],85%
"NCCCC[C@H](N[C@H]1CSc2ccccc2N(CC(=O)O)C1=O)C(=O)O [Example 60, 3(R)-[5-amino-1(S)-carboxypentyl]amino-4-oxo-2,3,4,5-tetrahydro-1,5-benzothiazepine-5-acetic acid]",inhibition at 0.1 µM,[2]; concentration 0.1 μM,82%
same,inhibition at 1 µM,[2],98%
"NCCCCCC[C@H](N[C@H]1CSc2ccccc2N(CC(=O)O)C1=O)C(=O)O [Example 73, 3(R)-[7-amino-1(S)-carboxyheptyl]amino-4-oxo-2,3,4,5-tetrahydro-1,5-benzothiazepine-5-acetic acid]",inhibition at 0.1 µM,[2]; concentration 0.1 μM,96%
same,inhibition at 1 µM,[2],100%
